Test results reported in US20110021567A1, “PREPARATION OF LENALIDOMIDE” (DR. REDDY'S LABORATORIES LTD., priority 2008, published 2011).

Experiment: storage stability of the amorphous form (material remains amorphous)
Type: physicochemical
Conditions: five days at 0-5° C., packaged in a polyethylene bag

Nc1cccc2c1CN(C1CCC(=O)NC1=O)C2=O (stereo not shown) [Example 8, 3-(4-amino-1-oxo-1,3-dihydro-2H-isoindol-2-yl)piperidine-2,6-dione]
physical form on storage: remains amorphous
